Patent US9175077B2, “Nucleic acids encoding biologically active polypeptides derived from a novel early stage pregnancy factor designated maternin (MA)” (NOBEL BIOSCIENCES LLC, priority 1999, dated 2015)
Entries after “also recorded” stand apart in the source; their conditions may differ.

Tests used:
[1] = test system: primary human tumor cells; assay: Short-term cultured primary human tumor cells, growth and apoptosis; type: cell-based; settings: 200 ng/ml; 3 days culture; 10% serum
Source text: Because cell lines might be more susceptible to growth inhibition and apoptosis, the effects of MA on short-term cultured human tumor cells were investigated. The cells were obtained from biopsied specimens and immediately cultured (primary cultures). The results were similar to the results with tumor cell lines. […] FIG. 3, Panels A and B are representative results with primary breast and prostate carcinomas respectively. These pro-apoptotic effects of MA on human tumor cells were with 10% serum rather than the lower concentrations sometimes used to make cells more susceptible to apoptosis.
More extensive studies of primary human tumor cells were carried out utilizing confocal microscopy.
With the exception of the kidney carcinoma, which was a biopsy sample direct from the tumor, the samples were from pleural effusions which developed after metastasis to the lung. The breast, prostate, and colon carcinomas were freshly obtained and immediately cultured, whereas the lung and kidney carcinomas went through 22 and 18 passes respectively before they were used in these studies. All cells were examined after 3 days culture in the presence or absence of MA (200 ng/ml) or other treatments. […]

[2] = test system: human carcinoma and sarcoma cells (PC3, KS Y-1); assay: Xenotransplanted human tumors in immunodeficient mice; type: in vivo
Method: In the first set of experiments, MA was tested against tumors formed by xenotransplantation of various human carcinoma and sarcoma cells in immunodeficient mice. […] […] Three different synthetic forms of MA were used: full length (MAS3) and the previously described MAS1 and MAS2 (Panel C).

SIVMAC 251 [3] = assay: SIVMAC 251 infected rhesus macaques; type: in vivo; settings: end-stage disease
Source text: Certain strains of SIV produce an AIDS-like illness in susceptible monkeys. Among them SIVMAC 251 induces disease in rhesus monkeys similar to AIDS in humans only with much greater rapidity.^174 Therapy with purified MA of 3 monkeys with end-stage disease infected 13-14 mos earlier was initiated when the animals were losing weight, highly viremic (plasma virus 0.5 to 3×10^6 copies of SIV RNA/ml by NASBA), and developing pancytopenia. […] In contrast, most untreated animals died by this period. Though the limitation of animal number precludes strong conclusions related to survival.
Far more impressive were experiments performed soon after infection (3 weeks). In these experiments, crude urinary preparations containing MA, but not crude fractions lacking MA, were inoculated subcutaneously. Using a 10^4.5 TCID50 of cell free SIVmac 251, the characteristic rise in SIV p27, reduction of CD4+ T-cells, and weight loss, which occurred in the untreated animals, was prevented in MA treated animals. The untreated animals died before 6 mos. […] However, stopping therapy led to rapid onset of virus production and development of AIDS-like disease.

[4] = test system: Lewis lung (LL) carcinoma cells; assay: Pro-apoptotic effect on cultured Lewis lung carcinoma cells; type: cell-based, mouse; settings: same dose range as cultured human tumor cells
Method: (§1) B16 melanoma and Lewis lung (LL) carcinoma cells were first shown to be susceptible to the pro-apoptotic effects of MA (FIG. 6, Panels C and D) at the same dose range used with cultured human tumor cells. The tumor cells grown in standard culture conditions were used to generate metastatic cancers in pathogen-free 6-8 week old C57/BL mice (Charles River). In one set of experiments, the animals were treated with MAS1 or MAS2 at two doses, 0.1 ug or 1.0 ug either in a pre-treatment protocol (two subcutaneous inoculations 24 and 48 hrs before transplanting the tumor cells).

SIVMAC 251 [5] = assay: SIV infection of rhesus macaque PBMCs (p27); type: cell-based
Method: One hour later the various polypeptides were added once.

[6] = test system: HIV-1 transgene expression; assay: HIV-1 transgenic rats; type: in vivo
Source text: Because of the extraordinary effects of MA in the mouse modes, we were concerned that the results might be peculiar to the model. Consequently, an HIV-1 transgenic rat model was developed. An additional advantage of the rat model is the larger size of the animals, enabling direct inoculation of MA into the developing pups rather than therapy being indirect (the lactating mother) and limited to the lactation phase. Thus, the transgenic rats can be followed and treated much longer.
Like the transgenic mice, the transgenic rats contain HIV-1 provirus PNNL 4-3, again deleted in gag/pol, and also develop hyperkeratosis. Additionally, they develop tissue fibrosis, inflammatory changes, and some histopathology more similar to human AIDS than in the mouse model, but unlike the HIV-1 transgenic mice the effect is usually not lethal. The changes correlate with expression of HIV-1 proteins. The transgenic rats are more fully described in copending U.S. patent application Ser. No. 09/058,113, by Bryant et al., filed Apr. 9, 1998, entitled “HIV Transgenic Animals and Uses Therefor,” the entire disclosure of which is incorporated herein by reference.
Inoculation (subcutaneous) of a 250-300 gm mother with 300 pmoles of MA for 10 days began after birth of the pups. […]

[7] = Lethally irradiated rats and mice; settings: for survival: treated at time of radiation, 3×/week for 4 weeks
Method: In order to determine in vivo relevance of the prohematopoietic effects of MA treated rats and mice under several conditions of bone marrow suppression. First, the effects of native MA and pMA and of the synthetic 15-mer MAS1 were treated for their capacity to reduce or prevent the effects of lethal doses of gamma irradiation. […] MA, pMA, MAS1, and various control polypeptides were given 48 and 24 hrs before, during, or 24 hrs after radiation. The animals treated prior to radiation received either 100 ng vs. 1 ug (rats) or 50 ng vs. 500 ng (mice) as 2 subcutaneous injections.
It is not yet possible to determine the precise molar dose of pMA because of less certainty on its full-length sequence.
To ascertain that the MA effect did promote hematopoiesis in these animals we examined the bone marrow for cellularity and colony formation and determined peripheral blood counts.

[8] = Toxicity in animal studies; type: in vivo, rats, mice; settings: incl. rhesus macaques 0.2 mg/kg for several months
Method: These cells included human, primate, and rodent bone marrow, PBMCs, and human CD4+ T-cells, CD8+ T-cells, CD34+ cells, and macrophages enriched from normal PBMCs, as well as normal human endothelial cells and fibroblasts. Cytotoxicity was assessed by 3H-thymidine incorporation, trypan blue staining, cell numbers, and morphological examination by light and confocal microscopy. Hematopoiesis was not only unimpaired it was promoted. […] These studies were chiefly performed with rats and mice, but also included rhesus macaques treated with 0.2 mg/kg for several months. Like the in vitro results, hematopoiesis was not impaired but instead enhanced.

B16 melanoma = assay: Pro-apoptotic effect on cultured B16 melanoma cells; type: cell-based, mouse; settings: same dose range as cultured human tumor cells
Method: as §1

VVCNYRDVRFESIRLPGCPRGVNPVVSYAVALSCQ [MA]
growth inhibition and apoptosis of primary human tumor cells [1]: inhibited growth and induced apoptosis; also recorded: Rapid induction of apoptosis
tumor regression ([2]; 300-500 ng/day (about 100-200 pmoles) for 2 to 3 weeks): complete tumor regression
effect on xenotransplanted tumor (qualitative) ([2]; controls at equivalent and higher molar concentrations): marked tumor regression; also recorded: KS tumor abolished
inhibition of tumor growth in vivo ([2]; mouse, in vivo): 60-100%
blood vessel formation / angiogenesis ([2]; thin sections of the tumors): reduction in blood vessel formation
weight and T-cell number (SIVMAC 251 [3]): stabilization and in some instances even increase
change in SIV titer (SIVMAC 251 [3]; 0.2 mg/kg 3 times weekly, 6 mos): no significant change
deaths in observation period (SIVMAC 251 [3]; 6 mos): none of the 3 animals died
susceptibility to pro-apoptotic effects [4]: susceptible
inhibition of SIVMAC 251 infection (qualitative) (SIVMAC 251 [5]): inhibited
survival and development ([6]; 300 pmoles to mother for 10 days, then direct subcutaneous inoculation): survived, developed normally
transgene expression ([6]; rat, in vivo): markedly reduced
survival ([7]; higher dose, over 100 days): 100%
gastrointestinal distress ([7]; in vivo): little or no gastrointestinal distress
survival ([7]; lowest doses): 80%
relative survival ([7]; pretreated, higher dose): survived longest
toxic side effects grossly or by blood counts [8]: no evident toxic side effects
susceptibility to pro-apoptotic effects (B16 melanoma): susceptible
